Experimental data published in patent US8309718B2, “4-pyrazolyl-N-arylpyrimidin-2-amines and 4-pyrazolyl-N-heteroarylpyrimidin-2-amines as janus kinase inhibitors” (Incyte Corporation, priority 2007, dated 2012).

The compounds below were run against T1, human JAK2 (Homo sapiens, UniProt O60674) (assay: In vitro JAK kinase assay (HTRF, phosphorylation of biotinylated peptide)). Conditions: catalytic domain a.a. 828-1132, 30 μM ATP, 500 nM peptide, room temperature 1 hr; read-out: JAK-2 IC50.
T1 construct: JAK2 (a.a. 828-1132); His tag (N); made in house; host or cells: insect cells (baculovirus)
T1 sequence (O60674 828-1132): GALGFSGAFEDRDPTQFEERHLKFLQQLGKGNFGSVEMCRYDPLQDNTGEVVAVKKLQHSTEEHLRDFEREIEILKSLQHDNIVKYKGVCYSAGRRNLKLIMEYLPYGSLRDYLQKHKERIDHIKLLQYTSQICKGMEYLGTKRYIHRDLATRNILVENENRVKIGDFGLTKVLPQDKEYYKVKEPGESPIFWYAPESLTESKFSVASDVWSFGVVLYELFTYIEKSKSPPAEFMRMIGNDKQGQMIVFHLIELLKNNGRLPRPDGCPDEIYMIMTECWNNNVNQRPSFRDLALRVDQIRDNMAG
Assay type: biochemical
Procedure, shortened: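 His-tagged human JAK2 catalytic domain (a.a. 828-1132), baculovirus/insect-cell expressed; phosphorylation of 500 nM biotinylated peptide at 30 μM ATP in 50 mM Tris pH 7.8, 100 mM NaCl, 5 mM DTT, 0.01% BSA. 1 h at room temperature, EDTA stop, HTRF read (Eu-Py20/SA-APC); IC50.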

IC50, < 100 nM:
N#CCC1(n2cc(-c3ccnc(Nc4ccc(N5CCOCC5=O)cc4)n3)cn2)CC(C#N)C1 (single isomer, unassigned) [Example 338, 3-(cyanomethyl)-3-[4-(2-{[4-(3-oxomorpholin-4-yl)phenyl]amino}pyrimidin-4-yl)-1H-pyrazol-1-yl]cyclobutanecarbonitrile]
Cc1cnc(Nc2ccc(N)cc2)nc1-c1cnn(C(CC#N)C2CCCC2)c1 (racemic) [Example 85, 3-(4-(2-(4-aminophenylamino)-5-methylpyrimidin-4-yl)-1H-pyrazol-1-yl)-3-cyclopentylpropanenitrile]
COc1ccc(Nc2nccc(-c3cnn(C4(CC#N)CCN(C(=O)c5ccno5)CC4)c3)n2)cn1 (racemic) [Example 16, 2-(1-(isoxazole-5-carbonyl)-4-(4-(2-(6-methoxypyridin-3-ylamino)pyrimidin-4-yl)-1H-pyrazol-1-yl)piperidin-4-yl)acetonitrile]
CCS(=O)(=O)N1CC(CC#N)(n2cc(-c3ccnc(Nc4ccc(C(=O)N5CCCC5)cc4)n3)cn2)C1 [Example 258, 2-(1-(ethylsulfonyl)-3-(4-(2-(4-(pyrrolidine-1-carbonyl)phenylamino)pyrimidin-4-yl)-1H-pyrazol-1-yl)azetidin-3-yl)acetonitrile]
N#CCC(C1CCCC1)n1cc(-c2ccnc(Nc3cccc(NC(=O)CN4CCNC(=O)C4)c3)n2)cn1 (racemic) [Example 238, N-(3-(4-(1-(2-cyano-1-cyclopentylethyl)-1H-pyrazol-4-yl)pyrimidin-2-ylamino)phenyl)-2-(3-oxopiperazin-1-yl)acetamide]
N#CCC1(n2cc(-c3ccnc(Nc4ccc(C(=O)N5CCC5)cc4)n3)cn2)CC(C#N)C1 (single isomer, unassigned) [Example 292, 3-(4-(2-(4-(azetidine-1-carbonyl)phenylamino)pyrimidin-4-yl)-1H-pyrazol-1-yl)-3-(cyanomethyl)cyclobutanecarbonitrile]
N#CCC1(n2cc(-c3ccnc(Nc4ccc(N5CCOCC5)cc4)n3)cn2)CN(S(=O)(=O)C2CC2)C1 [Example 93, 2-(1-(cyclopropylsulfonyl)-3-(4-(2-(4-morpholinophenylamino)pyrimidin-4-yl)-1H-pyrazol-1-yl)azetidin-3-yl)acetonitrile]
CO[C@H]1CCN(C(=O)c2ccc(Nc3nccc(-c4cnn(C5(CC#N)CC(C#N)C5)c4)n3)cc2)C1 (single isomer, unassigned) [Example 296]
N#CCC1(n2cc(-c3ccnc(Nc4ccc(S(=O)(=O)N5CCOCC5)cc4)n3)cn2)CCN(C(=O)c2ccno2)CC1 (racemic) [Example 15, 2-(1-(isoxazole-5-carbonyl)-4-(4-(2-(4-(morpholinosulfonyl)phenylamino)pyrimidin-4-yl)-1H-pyrazol-1-yl)piperidin-4-yl)acetonitrile]
N#CCC(C1CCCC1)n1cc(-c2ccnc(Nc3ccc(NC(=O)c4ccccc4)cc3)n2)cn1 (racemic) [Example 183, N-(4-(4-(1-(2-cyano-1-cyclopentylethyl)-1H-pyrazol-4-yl)pyrimidin-2-ylamino)phenyl)benzamide]
C[C@@H]1CN(S(=O)(=O)Nc2ccc(Nc3nccc(-c4cnn(C(CC#N)C5CCCC5)c4)n3)cc2)C[C@H](C)O1 (mixture of isomers) [Example 182, N-(4-(4-(1-(2-cyano-1-cyclopentylethyl)-1H-pyrazol-4-yl)pyrimidin-2-ylamino)phenyl)-(cis)-2,6-dimethylmorpholine-4-sulfonamide]
CC(=O)N[C@@H]1CCN(C(=O)c2ccc(Nc3nccc(-c4cnn(C5(CC#N)CC(C#N)C5)c4)n3)cc2)C1 (stereo partly drawn) [Example 299, (R)—N-(1-(4-(4-(1-(3-cyano-1-(cyanomethyl)cyclobutyl)-1H-pyrazol-4-yl)pyrimidin-2-ylamino)benzoyl)pyrrolidin-3-yl)acetamide]
COc1cnc(Nc2cccc(C(=O)N3CCC(O)CC3)c2)nc1-c1cnn(C(CC#N)C2CC2)c1 (racemic) [Example 329, 3-cyclopropyl-3-{4-[2-({3-[(4-hydroxypiperidin-1-yl)carbonyl]phenyl}amino)-5-methoxypyrimidin-4-yl]-1H-pyrazol-1-yl}propanenitrile]
N#CCC(C1CCCC1)n1cc(-c2ccnc(Nc3cccc(C(=O)N4CCN(c5ccccc5)CC4)c3)n2)cn1 (racemic) [Example 168, 3-cyclopentyl-3-(4-(2-(3-(4-phenylpiperazine-1-carbonyl)phenylamino)pyrimidin-4-yl)-1H-pyrazol-1-yl)propanenitrile]
N#CCC(C1CC1)n1cc(-c2ccnc(Nc3ccc(C(=O)N4CC[C@H](F)C4)cc3)n2)cn1 (mixture of isomers) [Example 271, 3-cyclopropyl-3-(4-(2-(4-((S)-3-fluoropyrrolidine-1-carbonyl)phenylamino)pyrimidin-4-yl)-1H-pyrazol-1-yl)propanenitrile]
COc1cnc(Nc2cccc(-c3cnco3)c2)nc1-c1cnn(C(CC#N)C2CCCC2)c1 (racemic) [Example 132, 3-cyclopentyl-3-(4-(5-methoxy-2-(3-(oxazol-5-yl)phenylamino)pyrimidin-4-yl)-1H-pyrazol-1-yl)propanenitrile]
CN1CCCC1CCNC(=O)c1cccc(Nc2nccc(-c3cnn(C(CC#N)C4CCCC4)c3)n2)c1 (stereo not drawn) [Example 149, 3-(4-(1-(2-cyano-1-cyclopentylethyl)-1H-pyrazol-4-yl)pyrimidin-2-ylamino)-N-(2-(1-methylpyrrolidin-2-yl)ethyl)benzamide]
COc1cnc(Nc2ccc(N3CCCC3=O)cc2)nc1-c1cnn(C(CC#N)C2CCCC2)c1 (racemic) [Example 130, 3-cyclopentyl-3-(4-(5-methoxy-2-(4-(2-oxopyrrolidin-1-yl)phenylamino)pyrimidin-4-yl)-1H-pyrazol-1-yl)propanenitrile]
COc1cnc(Nc2ccc(-n3cccn3)cc2)nc1-c1cnn(C(CC#N)C2CCCC2)c1 (racemic) [Example 102, 3-(4-(2-(4-(1H-pyrazol-1-yl)phenylamino)-5-methoxypyrimidin-4-yl)-1H-pyrazol-1-yl)-3-cyclopentylpropanenitrile]
N#CCC(C1CC1)n1cc(-c2ccnc(Nc3ccc(C(=O)N4CCC4)cc3)n2)cn1 (racemic) [Example 261, 3-(4-(2-(4-(azetidine-1-carbonyl)phenylamino)pyrimidin-4-yl)-1H-pyrazol-1-yl)-3-cyclopropylpropanenitrile]
N#CCC1(n2cc(-c3ccnc(Nc4ccc(N5CCCCC5=O)cc4)n3)cn2)CC(C#N)C1 (single isomer, unassigned) [Example 336, 3-(cyanomethyl)-3-[4-(2-{[4-(2-oxopiperidin-1-yl)phenyl]amino}pyrimidin-4-yl)-1H-pyrazol-1-yl]cyclobutanecarbonitrile]
Cc1cnc(Nc2cccc(-c3cnco3)c2)nc1-c1cnn(C(CC#N)C2CCCC2)c1 (racemic) [Example 84, 3-cyclopentyl-3-(4-(5-methyl-2-(3-(oxazol-5-yl)phenylamino)pyrimidin-4-yl)-1H-pyrazol-1-yl)propanenitrile]
COc1cnc(Nc2cccc(C(=O)N3CCC(OC)CC3)c2)nc1-c1cnn(C(CC#N)C2CC2)c1 (racemic) [Example 330, 3-cyclopropyl-3-{4-[5-methoxy-2-({3-[(4-methoxypiperidin-1-yl)carbonyl]phenyl}amino)pyrimidin-4-yl]-1H-pyrazol-1-yl}propanenitrile]
N#CCC(C1CCCC1)n1cc(-c2ccnc(Nc3ccc(C(=O)N[C@H]4CC[C@@H](O)CC4)cc3)n2)cn1 (mixture of isomers) [Example 223, 4-(4-(1-(2-cyano-1-cyclopentylethyl)-1H-pyrazol-4-yl)pyrimidin-2-ylamino)-N-(cis-4-hydroxycyclohexyl)benzamide]
CC[C@H](NC(=O)c1ccc(Nc2nccc(-c3cnn(C(CC#N)C4CCCC4)c3)n2)cc1)C(=O)N(C)C (mixture of isomers) [Example 235, 4-(4-(1-(2-cyano-1-cyclopentylethyl)-1H-pyrazol-4-yl)pyrimidin-2-ylamino)-N—((S)-1-(dimethylamino)-1-oxobutan-2-yl)benzamide]
N#CCC(C1CCCC1)n1cc(-c2ccnc(Nc3ccc(C(=O)NCC4CC4)cc3)n2)cn1 (racemic) [Example 126, 4-(4-(1-(2-cyano-1-cyclopentylethyl)-1H-pyrazol-4-yl)pyrimidin-2-ylamino)-N-(cyclopropylmethyl)benzamide]
N#CCC(C1CCCC1)n1cc(-c2ccnc(Nc3ccc(NC(=O)O[C@@H]4CCOC4)cc3)n2)cn1 (mixture of isomers) [Example 199, (R)-tetrahydrofuran-3-yl 4-(4-(1-(2-cyano-1-cyclopentylethyl)-1H-pyrazol-4-yl)pyrimidin-2-ylamino)phenylcarbamate]
COc1cnc(Nc2ccc(C(=O)N(C)C)cc2)nc1-c1cnn(C(CC#N)C2CCCC2)c1 (racemic) [Example 104, 4-(4-(1-(2-cyano-1-cyclopentylethyl)-1H-pyrazol-4-yl)-5-methoxypyrimidin-2-ylamino)-N,N-dimethylbenzamide]
CCS(=O)(=O)N1CCC(CC(CC#N)n2cc(-c3ccnc(Nc4ccc(N5CCOCC5)cc4)n3)cn2)CC1 (racemic) [Example 42, 4-(1-(ethylsulfonyl)piperidin-4-yl)-3-(4-(2-(4-morpholinophenylamino)pyrimidin-4-yl)-1H-pyrazol-1-yl)butanenitrile]
CN1CCC(NC(=O)c2ccc(Nc3nccc(-c4cnn(C(CC#N)C5CCCC5)c4)n3)cc2)CC1 (racemic) [Example 227, 4-(4-(1-(2-cyano-1-cyclopentylethyl)-1H-pyrazol-4-yl)pyrimidin-2-ylamino)-N-(1-methylpiperidin-4-yl)benzamide]
